Data published in patent US7485619B2, “Antimicrobial agent” (priority 2005, dated 2009).
Like-named read-outs stand apart in the source and are kept apart here. No end group written: not given here.

Assays:
[1] = system: methicillin-resistant Staphylococcus aureus (ATCC 700698); format: cell-based
Protocol: (§1) E. coli (ATCC 20922) (5×10^5 cells) in 100 μL of 10 mM Phosphate Buffer, pH 7.0 containing mucocidin peptide concentration of 5, 10, 15, 20, or 50 μM was incubated for an hour. Then, it was diluted 200 fold with the same buffer and 300 μL aliquots (approx. 750 cells) were plated on 150 mm LB plate and grown overnight at 37° C. The grown colonies were counted. The cell viability was estimated by the percent of colony forming units. Staphylococcus aureus (ATCC 25923) and methicillin resistant Staphylococcus aureus (MRSA) (ATCC 700698) were incubated with mucocidin concentration up to 5 μM. Candida albicans (ATCC 10231) were incubated with mucocidin concentration levels up to 50 μM^44.

[2] = system: Staphylococcus aureus (ATCC 25923); format: cell-based; conditions: for bactericidal activity (in words): Table 1
Protocol: (§2) FIGS. 2A-2C show antimicrobial activity of mucocidin. (A) The growth rate of E. coli (0.5×10^3) containing pBluescript SK plasmid with mucocidin cDNA insert and the control E. coli containing plasmid alone in 20 ml LB broth cultured for 5 days. Cell growth was monitored by Absorbance at 600 nm (A600). Induction of vector expression by 20 μL isopropyl-B-D-thiogalactopyranoside (IPTG 1 mM) is on the bottom line. Each point represents average of five experiments. (B) Bactericidal activity of synthetic mucocidin peptide was measured by the percent colony formation units of E. coli and Staphylococcus aureus. Cells (5×10^5) were cultured in 100 μL in IB broth containing 0, 5, 10, 20 μM concentration of mucocidin. After one hour, cell viability was determined by plating 300 μL aliquots of the 200 fold diluted cultured cell broth on LBA or TSA plates, respectively. […] (C) Scanning electron micrographs of E. coli, Staphylococcus aureus and Candida albicans incubated with 10, […] mucocidin, respectively for 10, 20 and 30 min, and they were immediately fixed with glutaraldehyde, dried on the Millipore membrane, and coated with gold. […] All photographs were taken at the same magnification. Scale bar, 1 μm.
as §1
Bactericidal activity of various deletion peptides of mucocidin (PeptRon, Korea) was compared with the activity of Magainin II (23 mer) peptide (Table 1). […] Also first 15 residue peptide likely functions as propeptide and native peptide will likely have 31 residues.

[3] = system: Aspergellous niger (ATCC #16404); assay: USP Antimicrobial Test; format: cell-based; conditions: three log dilution
Source text: (§3) The mucocidin (Microtest Laboratories Test sample #05-03383) met the requirement of the USP Validation of Microbial Recovery.

S. aureus (ATCC #6538) = assay: USP Antimicrobial Test; format: cell-based; conditions: three log dilution
Source text: as §3

[4] = system: P. aeruginosa (ATCC #9027); assay: USP Antimicrobial Test; format: cell-based; conditions: three log dilution
Source text: as §3

[5] = system: Candida albicans (ATCC #10231); assay: USP Antimicrobial Test; format: cell-based; conditions: three log dilution
Source text: as §3

E. coli (ATCC #8739) = assay: USP Antimicrobial Test; format: cell-based; conditions: three log dilution
Source text: as §3

[6] = system: Candida albicans (ATCC 10231); format: cell-based
Protocol: as §1

[7] = biological target: T1, guinea pig liver transglutaminase (UniProt P08587); assay: Mucocidin as transglutaminase substrate, monodansylcadaverine incorporation; format: biochemical; conditions: 50 μM mucocidin, 10 μM MDC; 20, 40, 60, 120 min; with or without Ca++
T1 construct: using guinea pig liver transglutaminase (Sigma, St. Luois, Mo.); purchased Sigma; host or cells: guinea pig liver
T1 sequence (P08587 whole entry): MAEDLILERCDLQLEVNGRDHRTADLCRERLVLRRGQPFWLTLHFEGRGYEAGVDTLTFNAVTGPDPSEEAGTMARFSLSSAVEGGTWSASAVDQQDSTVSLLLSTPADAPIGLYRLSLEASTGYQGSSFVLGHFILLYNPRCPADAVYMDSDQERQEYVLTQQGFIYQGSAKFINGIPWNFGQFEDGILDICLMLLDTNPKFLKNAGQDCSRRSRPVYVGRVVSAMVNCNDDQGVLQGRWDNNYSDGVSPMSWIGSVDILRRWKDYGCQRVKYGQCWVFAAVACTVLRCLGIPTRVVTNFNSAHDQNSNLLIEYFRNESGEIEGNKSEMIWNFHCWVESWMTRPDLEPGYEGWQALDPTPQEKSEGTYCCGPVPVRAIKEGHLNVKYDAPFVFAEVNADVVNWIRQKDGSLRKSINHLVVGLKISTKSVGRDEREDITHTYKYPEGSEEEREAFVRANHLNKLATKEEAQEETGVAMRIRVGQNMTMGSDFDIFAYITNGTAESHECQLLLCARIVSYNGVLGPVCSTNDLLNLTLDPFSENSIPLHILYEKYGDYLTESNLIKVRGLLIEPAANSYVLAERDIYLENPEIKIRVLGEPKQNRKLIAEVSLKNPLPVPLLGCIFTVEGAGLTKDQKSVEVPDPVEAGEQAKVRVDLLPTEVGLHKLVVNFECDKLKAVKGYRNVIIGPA
Protocol: Mucocidin as a transglutaminase substrate was carried out by a slightly modified method of previously described^27 using guinea pig liver transglutaminase (Sigma, St. Luois, Mo.). Transglutaminase assay was carried out by adding 10 μl of enzyme (10 μg) into 90 μL of reaction mixture containing 0.05 M tris acetate buffer, pH 8.0,1 mM EDTA, 5 mM dithiothreitol, 10 mM CaCl2, 0.2% lubrol, and 10 μM of monodansylcadaverine (MDC)(Sigma) and mucocidin (50 μM). Ten μL aliquot of the reaction mixture was removed at 20, 40, 60 and 120 min and added into 500 μL volume of 1 mM EDTA solution to halt the enzyme reaction. Unreacted MDC in solution was extracted with n-hexane. The reacted mucocidin in aqueous solution was blotted on a cellulose nitrate membrane in a slot filtering apparatus (Bio Rad Lab) and washed once with 0.5 mL of water. Relative fluorescence was indicated as a measure of MDC incorporated mucocidin. The aliquots taken from each sample was analyzed on SDS-PAGE.
These immunological staining of the mucosal epithelium indicate that mucocidin is expressed in the outer layers of epithelium and the secreted peptide remains bound to the epithelial surface. […]

E. coli (ATCC25922) = format: cell-based; conditions: for decrease of colony forming unit (CFU) percentages: one hour incubation
Protocol: as §2, §1

Staphylococcus aureus = assay: Scanning electron micrography of microbes treated with mucocidin; format: cell-based; conditions: 40 μM mucocidin; 10, 20 and 30 min
Protocol: as §2
(§4) Scanning Electron Micrographs were taken of E. coli, Staphylococcus aureus and Candida albicans incubated with 10, 40, 100 μM mucocidin, respectively for 10, 20 and 30 min, and they were immediately fixed with glutaraldehyde, dried on Millipore membrane, and coated with gold. […] All photographs were taken at the same magnification.
(§5) The primary growth of E. coli containing the mucocidin peptide was inhibited in a dose-dependent manner (FIG. 2B). […] To explore a possible mechanism of mucocidin elicited bactericidal activity, the progress of morphological alteration of microbes upon the treatment of mucocidin was determined by scanning electron Microscopy. E. coli, Staphylococcus aureus and Candida albicans (FIG. 2C) incubated with 10, 40, 100 μM mucocidin, respectively for various time periods, were immediately fixed, dried, and coated with gold. […]

Candida albicans = assay: as above; format: cell-based; conditions: 100 μM mucocidin; 10, 20 and 30 min
Protocol: as §2, §4, §5

E. coli [8] = assay: as above; format: cell-based; conditions: 10 μM mucocidin; 10, 20 and 30 min
Protocol: as §2, §4, §5

[9] = Bacteriocidal activity of salivary mucocidin fractions; format: cell-based; conditions: both Superose 12 peak fractions
Protocol: Thirty milliliters of parotid saliva from each volunteer was collected into the tube containing 1.0 ml of 0.25 M citrate buffer, pH 4.0 containing 0.02% NaN3. The 10 ml acidified saliva was adsorbed into SP-Sepharose column (2.4×6 ml) equilibrated with 0.025 M citrate buffer pH 4.0, the column was washed with 3 fold column volume each of the equilibrating buffer and the 0.05 M tris-acetate buffer pH 6.0 containing 1 mM EDTA. The mucocidin was eluted with the 0.05 M tris-acetate buffer, pH 6.0 containing 0.15 M NaCl. The eluted mucocidin containing fractions assayed by immunodot blot analysis were pooled and concentrated in Speed-vac centrifuge evaporation apparatus. Pooled mucocidin fractions were applied to Superose 12 column equilibrated with 0.02 M tris-acetate buffer pH 6.0. Two of the mucocidin peaks were detected first at 8 kDa molecular weight marker and next far beyond the column volume.

E. coli [10] = assay: Antimicrobial activity of isolated native salivary mucocidin; format: cell-based; conditions: data not shown

CC1(C)S[C@@H]2[C@H](NC(=O)[C@H](N)c3ccccc3)C(=O)N2[C@H]1C(=O)O [ampicillin, reference compound]
sensitivity of methicillin-resistant Staphylococcus aureus (in words) [1]: insensitive

ATSSVSSRVLNRSLQVKVVKITN [Peptide 23-mer-C]
S. aureus (MBC, μM) ([2]; ATCC 25923): >10.0 µM | growth of the organism [3]: almost no growth | growth of the organism (S. aureus (ATCC #6538)): almost no growth | growth of the organism [4]: almost no growth | growth of the organism [5]: almost no growth | growth of the organism (E. coli (ATCC #8739)): almost no growth

EYIYNSACSVLSATSSVSSRVLNRSLQVKVVKITN [Peptide 35-mer]
S. aureus (MBC, μM) ([2]; ATCC 25923): >50.0 µM

GIGKFLHSAKKFGKAFVGEIMNS [Magainin II, reference compound]
S. aureus (MBC, μM) ([2]; Table 1, deletion peptides): >3.0 µM

MHDFWVLWVLLEYIYNSACSVLSATSSVSSRVLNRSLQVKVVKITN [Peptide 46-mer]
minimal bactericidal concentration (MBC) [6]: 80 ± 13.5 µM | minimal bactericidal concentration (MBC) [1]: 50 ± 10.9 µM | sensitivity of methicillin-resistant Staphylococcus aureus (in words) [1]: very sensitive to low concentrations | time-dependent uptake of MDC into mucocidin [7]: detected only in the presence of Ca^++ | S. aureus (MBC, μM) ([2]; ATCC 25923): >70.0 µM | minimal bactericidal concentration (MBC) ([2]; ATCC 25923): 3 ± 0.5 µM | sensitivity of primary growth of Staphylococcus aureus relative to E. coli ([2]; S. aureus versus E. coli): ten fold more sensitive | bactericidal activity (in words) [2]: good bactericidal activity | decrease of colony forming unit (CFU) percentages (E. coli (ATCC25922); 5 μM mucocidin): 20% | decrease of colony forming unit (CFU) percentages (E. coli (ATCC25922); 10 μM mucocidin): 40% | decrease of colony forming unit (CFU) percentages (E. coli (ATCC25922); 15 μM mucocidin): 50% | decrease of colony forming unit (CFU) percentages (E. coli (ATCC25922); 20 μM mucocidin): 60% | minimal bactericidal concentration (MBC) (E. coli (ATCC25922); ATCC25922): 40 ± 7.3 µM | morphology of the microbe by SEM (Staphylococcus aureus): loss and shrinkage of original cell shapes | morphology of the microbe by SEM (Candida albicans): loss and shrinkage of original cell shapes | morphology of the microbe by SEM (E. coli [8]): loss and shrinkage of original cell shapes

M^1HDFWVLWVLLEYIYNSACSVLS^23 (MHDFWVLWVLLEYIYNSACSVLS; listed as Homo sapiens) [Peptide 23-mer-N, mucocidin residues 1-23]
bactericidal activity (in words) [2]: no activity

SRVLNRSLQVKVVKITN [Peptide 17-mer, SRVLNRSLQVKVVKITN]
S. aureus (MBC, μM) ([2]; ATCC 25923): >5.0 µM

SSVSSRVLNRSLQVKVVKITN [Peptide 21-mer]
S. aureus (MBC, μM) ([2]; ATCC 25923): >3.5 µM

VLNRSLQVKVVKITN [Peptide 15-mer, VLNRSLQVKVVKITN]
S. aureus (MBC, μM) ([2]; ATCC 25923): >20.0 µM

VSSRVLNRSLQVKVVKITN [Peptide 19-mer, VSSRVLNRSLQVKVVKITN]
S. aureus (MBC, μM) ([2]; ATCC 25923): >3.5 µM

isolated native salivary mucocidin: glycosylated native mucocidin isolated from human parotid saliva by ion exchange and Superose 12 chromatography (MHDFWVLWVLLEYIYNSACSVLSATSSVSSRVLNRSLQVKVVKITN; also: glycosylated, sites not given here)
bacteriocidal activity [9]: bacteriocidal activity similar to mucocidin peptides | antimicrobial activity against E. coli (E. coli [10]): retained antimicrobial activity
